Source: the NIST ThermoML archive (doi:10.1021/je800012v)
Numbers after ± are expanded uncertainties.

Details: Liquid

CCCCCC [hexane]
mass density [kg/m3]
Details | 100 kPa | 2500 kPa | 5000 kPa | 10000 kPa | 15000 kPa | 20000 kPa | 25000 kPa | 30000 kPa | 35000 kPa
283.15 K | 668.07 ± 0.32 | 670.36 ± 0.38 | 672.69 ± 0.44 | 677.06 ± 0.56 | 681.19 ± 0.68 | 685.08 ± 0.8 | 688.82 ± 0.91 | 692.35 ± 1 | 695.65 ± 1.1
293.15 K | 659.18 ± 0.33 | 661.67 ± 0.39 | 664.17 ± 0.45 | 668.87 ± 0.58 | 673.27 ± 0.7 | 677.4 ± 0.81 | 681.33 ± 0.93 | 685.07 ± 1 | 688.63 ± 1.1
298.15 K | 654.61 ± 0.33 | 657.21 ± 0.4 | 659.81 ± 0.46 | 664.66 ± 0.58 | 669.24 ± 0.7 | 673.51 ± 0.82 | 677.56 ± 0.94 | 681.4 ± 1.1 | 685.02 ± 1.2
303.15 K | 649.97 ± 0.34 | 652.7 ± 0.4 | 655.36 ± 0.46 | 660.53 ± 0.59 | 665.23 ± 0.71 | 669.63 ± 0.83 | 673.81 ± 0.95 | 677.77 ± 1.1 | 681.45 ± 1.2
313.15 K | 640.82 ± 0.35 | 643.76 ± 0.41 | 646.69 ± 0.47 | 652.13 ± 0.6 | 657.16 ± 0.73 | 661.86 ± 0.85 | 666.28 ± 0.97 | 670.44 ± 1.1 | 674.41 ± 1.2
323.15 K | 631.41 ± 0.35 | 634.61 ± 0.42 | 637.8 ± 0.48 | 643.69 ± 0.62 | 649.12 ± 0.74 | 654.14 ± 0.87 | 658.84 ± 0.99 | 663.23 ± 1.1 | 667.4 ± 1.2
333.15 K | 621.8 ± 0.36 | 625.32 ± 0.43 | 628.77 ± 0.5 | 635.13 ± 0.63 | 640.94 ± 0.76 | 646.27 ± 0.89 | 651.23 ± 1 | 655.89 ± 1.1 | 660.3 ± 1.2

CCCCCl [1-chlorobutane]
mass density [kg/m3]
Details | 100 kPa | 2500 kPa | 5000 kPa | 10000 kPa | 15000 kPa | 20000 kPa | 25000 kPa | 30000 kPa | 35000 kPa
283.15 K | 897.21 ± 0.17 | 899.51 ± 0.19 | 901.82 ± 0.2 | 906.3 ± 0.24 | 910.57 ± 0.26 | 914.69 ± 0.29 | 918.63 ± 0.31 | 922.33 ± 0.34 | 926.05 ± 0.36
293.15 K | 886.18 ± 0.18 | 888.63 ± 0.2 | 891.13 ± 0.21 | 895.89 ± 0.25 | – | 904.73 ± 0.31 | 908.9 ± 0.34 | 912.88 ± 0.36 | 916.77 ± 0.38
298.15 K | 880.63 ± 0.18 | 883.17 ± 0.2 | 885.72 ± 0.22 | 890.65 ± 0.25 | 895.36 ± 0.29 | 899.79 ± 0.32 | 904.09 ± 0.35 | 908.22 ± 0.37 | 912.17 ± 0.4
303.15 K | 874.92 ± 0.18 | 877.59 ± 0.21 | 880.23 ± 0.22 | 885.43 ± 0.26 | 890.24 ± 0.29 | 894.84 ± 0.33 | 899.24 ± 0.36 | 903.46 ± 0.39 | 907.47 ± 0.41
313.15 K | 863.82 ± 0.19 | 866.65 ± 0.21 | 869.49 ± 0.23 | 874.93 ± 0.27 | 880.07 ± 0.31 | 884.94 ± 0.35 | 889.61 ± 0.38 | 894.04 ± 0.41 | 898.33 ± 0.44
323.15 K | 852.43 ± 0.2 | 855.47 ± 0.22 | 858.54 ± 0.24 | 864.35 ± 0.29 | 869.85 ± 0.33 | 875.03 ± 0.37 | 879.94 ± 0.4 | 884.62 ± 0.43 | 889.1 ± 0.46
333.15 K | 840.79 ± 0.21 | 844.06 ± 0.23 | 847.37 ± 0.25 | 853.61 ± 0.3 | 859.47 ± 0.34 | 864.97 ± 0.38 | 870.17 ± 0.42 | 875.12 ± 0.46 | 879.82 ± 0.49
